Reference: article PMC11883425, “The synthesis and investigation of novel 3-benzoylbenzofurans and pyrazole derivatives for anti-HIV activity” (RSC Medicinal Chemistry, 2025)
Like-named read-outs stand apart in the source and are kept apart here.

Key:
[1] = Cytotoxicity in TZM-bl cells by MTT assay; assay type: cell-based; settings: human, MTT assay, 48 hours, mean ± SEM
Experimental: All cell culture reagents and cell growth medium were purchased from Sigma-Aldrich/Merck. The cell lines are TZM-bl cells (HeLa cells derived cell that is genetically engineered to contain CD4 and CCR5/CXCR4 receptor) were obtained from NIH AIDS Reagent Program and HEK 293T (derived from human embryonic kidney cells) were received as donations from the lab of Dr Patience Mthunzi, Biophotonics laboratory, CSIR. […] The cells were cultured in T-75 culture flasks (Lasec SA (Pty) Ltd Johannesburg) in Dulbecco's modified Eagle's medium (DMEM) with 3.7 g L^−1 […], 0.05% (v/v) gentamicin/mL, 1% penicillin/streptomycin and 10% heat-inactivated fetal bovine serum (Celtic Molecular Diagnostics). All incubations for tissue cell culture were conducted in a 37 °C, 5% CO2, and 95% humidity incubator.
(§1) The cytotoxicity of compounds was evaluated in TZM-bl cells since these cells are susceptible to HIV infections and would be used for the evaluation of HIV entry inhibition by 3-benzoylbenzofurans and pyrazole derivatives.[74] MTT dye (3-(4,5-dimethylthiazol-2-yl)-2,5-diphenyltetrazolium bromide), which is reduced by viable cells to produce […] purple formazan, was then measured and correlated with cell viability.[75] TZM-bl cells were cultured to confluency in DMEM containing 10% FBS and harvested by centrifugation at 1200 × g for 5 minutes. The cells were counted at 1 × 10^5 cells per mL per well and were seeded overnight, followed by treatment with serially diluted compounds from 500 to 0.98 μM for 48 hours. The peripheral blood mononuclear cells (PBMCs) were isolated from the blood of HIV-negative volunteers, treated with phytohaemagglutinin-protein (PHA, 4 μg mL^−1) to stimulate the cells for 2 hours. PBMCs were diluted in RPMI-1640 medium, counted and 1 × 10^6 cells per mL were treated with compounds (500 to 0.98 μM) for 48 hours. Cells were harvested by centrifugation at 1200 × g for 5 minutes, and the supernatants were removed. For the PBMCs, MTS dye (3-(4,5-dimethylthiazol-2-yl)-5-(3-carboxymethoxyphenylo)-2-(4-sulfophenyl)-2H-tetrazolium) was used.[76] A 100 μL of tetrazolium dye (5 mg mL^−1 MTT prepared in DMEM or 1 : 9 dilution MTS prepared in RPMI-1640) was added to the wells and incubated for 4 to 24 hours. MTT samples were solubilized with 100 μL solubilization buffer (1 mL HCl: 9 mL isopropanol) for 30 minutes, and the absorbance reading was taken at 550 nm and 690 nm wavelengths. MTS sample readings were taken at 490 nm without a solubilization step using the SpectraMax^R Paradigm^R Multi-Mode Detection Platform plate reader (Molecular Devices, California, USA).

[2] = test system: CAP210 pseudovirus; assay: Time of drug addition assay, CAP210 pseudovirus in TZM-bl cells; assay type: cell-based, HIV-1; settings: added 0, 2, 4, 6, 8 hours post-infection
Experimental: Fig. 5 Time of addition assay of CAP210 HIV infection treated with active compounds. TZM-bl cells were infected with CAP210 pseudoviruses and treated with compounds at various hours post-infection. NVP, 3g, and 4b were used at 3 μM, while 5f and 5h were used at 25 μM. The bars represent the mean ± SEM obtained from three independent experiments.
TZM-bl cells (1 × 10^5 cells per mL containing 7.5 μg mL^−1 DEAE-dextran) were infected with CAP210 pseudovirus at 400 TCID50 and incubated at 37 °C for 48 hours. The compounds were added to the wells at various time points (0, 2, 4, 6, and 8 hours) post-infection. […] After 48 hours, the cells were centrifuged at 1200 × g for 5 minutes, culture media was removed, leaving 50 μL, and Bright-Glo substrate (50 μL) was added to detect luciferase activity for 2 minutes at 37 °C. Inhibition of HIV pseudoviruses by active compounds was detected by reading for chemiluminescence using a Corning® 96-well white polystyrene using the SpectraMax® Paradigm® Multi-Mode Microplate Reader.

[3] = molecular target: T1, HIV-1 PR (Human immunodeficiency virus type 1 group M subtype B, UniProt P04585); assay: HIV-1 protease inhibition assay (fluorogenic substrate); assay type: biochemical; settings: for SI (HIV-1 PR): CC50 PBMCs / IC50 HIV-1 PR
T1 construct: 2 μL recombinant HIV-PR (0.2 μg mL^−1) was added only to reaction wells
Experimental: Compounds were serially diluted in protease assay buffer (0.1 M CH3COONa, 1 M NaCl, 1 mM EDTA, 1 mM DTT, and 1 mg mL^−1 BSA; pH 4.7), making a final concentration of 75 to 9.4 μM, and 49 μL of compounds were added to wells. 49 μL protease substrate 1 (10 μM) was added to each well, and 2 μL recombinant HIV-PR (0.2 μg mL^−1) was added only to reaction wells except for reaction blanks, where it was replaced with 2 μL assay buffer. The solutions were mixed and incubated at 37 °C for 1 hour. Endpoint fluorescence readings at an excitation wavelength of 370 nm and an emission wavelength of 520 nm.

[4] = Cytotoxicity in PBMCs by MTS assay; assay type: cell-based; settings: human, peripheral blood mononuclear cells (PBMCs), PHA-stimulated, HIV-negative PBMCs
Experimental: as §1

[5] = test system: HIV-1 Q23 pseudovirus; assay: HIV-1 whole virus inhibition assay, Q23 pseudovirus (luciferase, TZM-bl cells); assay type: cell-based
Experimental: (§2) The HIV pseudoviruses were produced from the plasmids that were kindly donated by Dr Mthunzi-Kufa (CSIR, South Africa). Competent DH5α cells and STBL2 cells were transformed with envelope (CAP210.2.00.E8 and Q23.17) and backbone plasmid (HIV-1 SG3 ΔEnv) through heat-shock at 42 °C for 90 seconds and cooled in ice for 5 minutes. The transformed cells were grown in Luria Bertani medium containing 100 μg mL^−1 ampicillin and glycerol stocks were prepared. The transformed cells were grown at 37 °C in a 200 rpm shaking incubator overnight and the plasmids were isolated from the cells using a GeneJET plasmid Miniprep Kit (ThermoFisher Scientific Inc). The purity of the isolated plasmids was assessed for purity using Nanodrop. The HEK 293T cells were co-transfected with the backbone (10 μg) and envelope plasmids (5 μg) using the PolyFect Transfection Reagent (QIAGEN N.V) for 8–12 hours and the transfected cells were grown for 48 hours producing pseudoviruses which were collected, and stocks stored at −80 °C.
(§3) The compounds were serial diluted from 100 to1.56 μM in 96 well plates (Separation Scientific SA (Pty) Ltd) and incubated with either CAP210 or Q23 pseudoviruses (200 TCID50) and incubated for 1 hour. The TZM-bl cells (1 × 10^5 cells per mL containing 7.5 μg mL^−1 DEAE-dextran) were added and incubated for 48 hours. The 96 well plates were centrifuged, and the supernatant was removed leaving only 50 μL in each well. The Bright-Glo™ Luciferase substrate (Anatech Instruments (Pty) Ltd) (50 μL) was added to each well and incubated for 2 minutes in the dark and chemiluminescence readings were taken in a Corning® 96-well white polystyrene plate using a SpectraMax® Paradigm® Multi-Mode Microplate Reader.

[6] = test system: HIV-1 CAP210 pseudovirus; assay: HIV-1 whole virus inhibition assay, CAP210 pseudovirus (luciferase, TZM-bl cells); assay type: cell-based
Experimental: as §2, §3

[7] = TZM-bl, 48 h, read-out: IC50 (μM) Q23, Q23 pseudovirus, TZM-bl cells, 48 hours
[8] = TZM-bl, 48 h, read-out: IC50 (μM) CAP210, CAP210 pseudovirus, TZM-bl cells, 48 hours
[9] = lowest concentrations tested, Fig. 3

| Compound | CC50 at 48 h [1] [µM] | IC50 [5, 7] [µM] | IC50 [6, 8] [µM] | further results |
| --- | --- | --- | --- | --- |
| COc1ccc(C(=O)c2coc3ccc(O)cc23)c(OC)c1OC [3g, (5-Hydroxybenzofuran-3-yl)(2,3,4-trimethoxyphenyl)methanone] | 79.9 ± 7.25 |  |  | inhibition of HIV infection by time of addition ([2]; 3 μM): inhibit HIV infections for up to 8 hours; IC50 [3]: 70.9 ± 12.4 µM; SI (HIV-1 PR) [3]: 1.3; CC50 at 48 h [4]: 89.5 ± 11.6 µM |
| COc1ccc(Br)cc1-c1n[nH]cc1-c1cc(OC)c2ccccc2c1O [5d, 2-[3-(5-Bromo-2-methoxyphenyl)-1H-pyrazol-4-yl]-4-methoxynaphthalen-1-ol] | 75 ± 6.4 | 16.2 ± 2.55 | 20.8 ± 1 |  |
| COc1cc(F)ccc1C(=O)c1coc2c1cc(OC)c1ccccc12 [4e, (4-Fluoro-2-methoxyphenyl)(5-methoxynaphtho[1,2-b]furan-3-yl)methanone] | 35.2 ± 2.32 | 20.9 ± 2.2 | 4.27 ± 0.19 |  |
| COc1ccc(-c2n[nH]cc2-c2cc(O)ccc2O)c(OC)c1OC [5g, 2-[3-(2,3,4-Trimethoxyphenyl)-1H-pyrazol-4-yl]benzene-1,4-diol] | 140 ± 17.1 | < 10 | 13.8 ± 1.7 | IC50 ([5]; {}): 9.93 ± 0.69 µM |
| COc1ccc(OC)c(-c2n[nH]cc2-c2cc(OC)c3ccccc3c2O)c1 [5c, 2-[3-(2,5-Dimethoxyphenyl)-1H-pyrazol-4-yl]-4-methoxynaphthalen-1-ol] | 47.7 ± 17.7 | 13 ± 3.75 | 20.5 ± 6.8 |  |
| COc1ccc(OC)c(C(=O)c2coc3ccc(O)cc23)c1 [3h, (5-Hydroxybenzofuran-3-yl)(2,5-dimethoxyphenyl)methanone] | 50 ± 10.5 | 5.74 ± 1.51 | 4.45 ± 0.82 |  |
| COc1ccc(OC)c(C(=O)c2coc3c(C)cc(OC)c(C)c23)c1 [4b, (2,5-Dimethoxyphenyl)(5-methoxy-4,7-dimethyl-1-benzofuran-3-yl)methanone] | 8.42 ± 1.16 |  |  | inhibition of HIV infection by time of addition ([2]; 3 μM): inhibit HIV infections for up to 8 hours; IC50 [3]: 57.5 ± 10.1 µM; SI (HIV-1 PR) [3]: 0.7; CC50 at 48 h [4]: 41.3 ± 6.78 µM |
| COc1cc(F)ccc1C(=O)c1coc2ccc(O)cc12 [3f, (4-fluoro-2-methoxyphenyl)(5-hydroxy-1-benzofuran-3-yl)methanone] | 41.9 ± 6.33 | 40.6 ± 7.85 | 11.2 ± 0.31 |  |
| COc1cc(F)ccc1-c1n[nH]cc1-c1cc(OC)c2ccccc2c1O [5e, 2-[3-(4-Fluoro-2-methoxyphenyl)-1H-pyrazol-4-yl]-4-methoxynaphthalen-1-ol] | 103 ± 11.1 | 15.7 ± 8.17 | 29.09 ± 0.18 |  |
| COc1ccc(OC)c(-c2n[nH]cc2-c2cc(O)ccc2O)c1 [5h, 2-[3-(2,5-Dimethoxyphenyl)-1H-pyrazol-4-yl]benzene-1,4-diol] | 142 ± 13.2 | < 10 | < 10 | IC50 ([5]; {}): 8.14 ± 2.63 µM; IC50 ([6]; {}): 6.31 ± 0.31 µM; inhibition of HIV infection by time of addition ([2]; 25 μM): only inhibited HIV infections when added on the onset of infection; IC50 [3]: 50.7 ± 0.78 µM; SI (HIV-1 PR) [3]: 1.6; CC50 at 48 h [4]: 83.2 ± 9.7 µM |
| COc1ccc(OC)c(C(=O)c2coc3cc(C)c(OC)c(C)c23)c1 [4a, (2,5-Dimethoxyphenyl)(5-methoxy-4,6-dimethyl-1-benzofuran-3-yl)methanone] | 59.1 ± 6.56 | 18.1 ± 1.78 | 8.12 ± 2.56 |  |
| COc1cc(F)ccc1-c1n[nH]cc1-c1cc(O)ccc1O [5f, 2-[3-(4-Fluoro-2-methoxyphenyl)-1H-pyrazol-4-yl]benzene-1,4-diol] | 36.1 ± 7.95 |  |  | anti-HIV activity (Q23) [5, 9]: over 90%; anti-HIV activity (CAP210) [6, 9]: over 90%; inhibition of HIV infection by time of addition ([2]; 25 μM): only inhibited HIV infections when added on the onset of infection; IC50 [3]: 31.6 ± 3.83 µM; SI (HIV-1 PR) [3]: 3.1; CC50 at 48 h [4]: 98.2 ± 1.3 µM |
| COc1ccc(OC)c(-c2n[nH]cc2-c2c(C)c(OC)cc(C)c2O)c1 [5b, 2-[3-(2,5-Dimethoxyphenyl)-1H-pyrazol-4-yl]-4-methoxy-3,6-dimethylphenol] | 46.5 ± 6.66 | 10.1 ± 1.66 | 7.87 ± 0.91 |  |
| COc1ccc(Br)cc1C(=O)c1coc2c1cc(OC)c1ccccc12 [4d, (5-Bromo-2-methoxyphenyl)(5-methoxynaphtho[1,2-b]furan-3-yl)methanone] | 7.77 ± 1.54 | 22.4 ± 3.47 | 3.28 ± 1.48 |  |
| COc1ccc(OC)c(C(=O)c2coc3c2cc(OC)c2ccccc23)c1 [4c, (2,5-Dimethoxyphenyl)(5-methoxynaphtho[1,2-b]furan-3-yl)methanone] | 9.65 ± 2.37 | 12.6 ± 0.53 | 2.43 ± 1.28 |  |
